Data reported in patent US7932291B2, “Use of L-carnitine and its alkanoyl derivatives as osmotic agents in solutions for medical use” (Sigma-Tau Industrie Farmaceutiche Riunite S.p.A., priority 1999, dated 2011).

Test system: male Sprague-Dawley rats
Experiment: In-vivo peritoneal dialysis in rats: fluid volume recovered from the peritoneum
Design: species or system rat
Method: The peritoneal dialysis experiment was conducted in male Sprague-Dawley rats weighing 500-600 g (Charles River) maintained on a standard diet with water ad libitum. The animals were anaesthetized with an intraperitoneal injection of inactin (100 mg/kg) and were placed on an operating table at controlled temperature. The animals were submitted to a tracheostomy to cannulate the left jugular vein with a PESO medical silicone tube. Thirty minutes after administration of the anaesthetic the animals were infused with a saline solution at a rate of 2.3 ml/h throughout the period of the experiment. The dialysis solution (15 ml), after preheating to 37° C., was inoculated into the peritoneal cavity with a 15 teflon needle-cannula 1 h after administration of the anaesthetic. The amount of fluid injected was determined by weighing the syringe before and after injection of the fluid, using an electronic scale. At the end of each analysis period (2, 4 and 6 h), incisions were made in the rats' abdomens with an acusector and all the fluid present in the peritoneum was aspirated with a 1 ml syringe. After removing the surface fluid, the intestines were carefully shifted from the abdominal cavity to collect the residual fluid remaining on the dorsal wall. The fluid recovered was placed in a beaker and weighed. […]

SMILES: C[N+](C)(C)C[C@H](O)CC(=O)[O-] [Carnitine, L-carnitine]
- Quality as osmotic agent compared with glucose (rat peritoneal dialysis, 1.5-4.25%): at least as good as glucose
- Time by which the increase in intraperitoneal fluid volume is completed / peak activity reached (rat, all concentrations used (1.5, 2.5, 4.25%)): ≤ 2 h
